Test results reported in BindingDB's records for doi:10.1124/mol.112.080291 (University of California San Diego, 2014).
“And” between values parts separate entries of the source, which are not always exact repeats. Identical values can stand only once.

Key:
Assay in all cases: Synthesizing Selective Agonists for the ?7 Nicotinic Receptor with in situ Click-Chemistry on Acetylcholine Binding Protein Templates.
[1] = target: Acetylcholine-binding protein (Lymnaea stagnalis, UniProt P58154); details: pH 7.4; 20 °C
Procedure: (§1) Assay Description 2 Assays used to generate Ki or EC50 values. 1) SPA Assay - Quick screen binding assays were performed using 100 l of 0.2 mg/ml anti-mouse SPA antibody-binding beads (Amersham Biosciences) mixed with 33.6 g of monoclonal anti-FLAG M2 antibody from mouse (Sigma) in 0.1 M NaPO4 buffer, pH 7.0 (SPA mixture). Media (5l) collected 2 days after transfection were added to the mixture and finally 10 l of (+)-[3H]epibatidine (PerkinElmer Life Sciences) was added at a final concentration of 10 nM. Solutions were each counted for 1 min on either a Beckman LS 6500 liquid scintillation counter or Wallac 1450 Microbeta Trilux. Negative and positive controls consisted of media (5 l) from the respective transfections. Nonexpressing mutants were transfected and verified de novo in triplicate. Western immunoblots were also performed upon media (15 l) from transfections to verify the lack of expression. Competition curves and direct binding were measured following the protocol p

[2] = target: Neuronal acetylcholine receptor subunit alpha-7 (Homo sapiens, UniProt P36544); details: pH 7.4; 37 °C
Procedure: as §1

[3] = target: T1, 5-hydroxytryptamine receptor 3A (Mus musculus, UniProt P23979); details: pH 7.4; 37 °C
T1 sequence (P23979 whole entry): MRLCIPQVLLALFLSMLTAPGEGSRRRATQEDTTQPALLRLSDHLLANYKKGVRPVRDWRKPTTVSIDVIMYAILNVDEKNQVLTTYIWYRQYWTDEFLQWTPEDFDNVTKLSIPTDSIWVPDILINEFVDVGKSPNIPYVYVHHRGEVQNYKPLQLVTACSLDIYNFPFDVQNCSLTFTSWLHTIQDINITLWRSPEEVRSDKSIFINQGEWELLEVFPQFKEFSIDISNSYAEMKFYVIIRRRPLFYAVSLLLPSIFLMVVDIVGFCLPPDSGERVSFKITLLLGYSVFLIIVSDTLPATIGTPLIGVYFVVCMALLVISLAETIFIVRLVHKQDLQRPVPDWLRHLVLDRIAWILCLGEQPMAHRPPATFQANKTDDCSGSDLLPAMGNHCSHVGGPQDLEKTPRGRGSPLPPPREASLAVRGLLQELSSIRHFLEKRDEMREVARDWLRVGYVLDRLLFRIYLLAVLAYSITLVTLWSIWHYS
Procedure: as §1

[4] = target: T2, Soluble acetylcholine receptor (Aplysia californica, UniProt Q8WSF8); details: pH 7.4; 20 °C
T2 sequence (Q8WSF8 whole entry): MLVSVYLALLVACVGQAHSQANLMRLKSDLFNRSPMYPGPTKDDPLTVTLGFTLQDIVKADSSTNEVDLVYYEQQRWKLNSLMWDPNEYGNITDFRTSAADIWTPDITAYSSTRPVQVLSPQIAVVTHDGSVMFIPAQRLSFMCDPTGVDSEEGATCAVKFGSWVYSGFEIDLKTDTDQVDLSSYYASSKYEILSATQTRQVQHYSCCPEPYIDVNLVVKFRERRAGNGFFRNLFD
Procedure: as §1

[5] = target: Neuronal acetylcholine receptor subunit alpha-4 (Homo sapiens, UniProt P43681); details: pH 7.4; 37 °C
Procedure: as §1

Sequence of Neuronal acetylcholine receptor subunit alpha-7 (P36544 whole entry): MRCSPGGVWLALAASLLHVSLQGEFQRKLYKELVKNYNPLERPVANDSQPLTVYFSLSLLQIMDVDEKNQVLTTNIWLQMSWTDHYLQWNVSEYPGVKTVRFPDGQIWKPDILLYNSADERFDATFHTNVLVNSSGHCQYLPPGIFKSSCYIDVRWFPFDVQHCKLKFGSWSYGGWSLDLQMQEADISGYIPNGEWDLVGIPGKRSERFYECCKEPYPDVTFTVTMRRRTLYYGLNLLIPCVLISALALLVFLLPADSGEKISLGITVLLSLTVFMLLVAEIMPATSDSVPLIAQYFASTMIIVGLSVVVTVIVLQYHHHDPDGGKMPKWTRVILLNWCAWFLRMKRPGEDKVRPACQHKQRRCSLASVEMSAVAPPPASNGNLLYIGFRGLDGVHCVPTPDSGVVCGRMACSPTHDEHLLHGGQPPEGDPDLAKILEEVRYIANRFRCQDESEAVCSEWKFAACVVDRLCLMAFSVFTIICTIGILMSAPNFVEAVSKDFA
Sequence of Neuronal acetylcholine receptor subunit alpha-4 (P43681 whole entry): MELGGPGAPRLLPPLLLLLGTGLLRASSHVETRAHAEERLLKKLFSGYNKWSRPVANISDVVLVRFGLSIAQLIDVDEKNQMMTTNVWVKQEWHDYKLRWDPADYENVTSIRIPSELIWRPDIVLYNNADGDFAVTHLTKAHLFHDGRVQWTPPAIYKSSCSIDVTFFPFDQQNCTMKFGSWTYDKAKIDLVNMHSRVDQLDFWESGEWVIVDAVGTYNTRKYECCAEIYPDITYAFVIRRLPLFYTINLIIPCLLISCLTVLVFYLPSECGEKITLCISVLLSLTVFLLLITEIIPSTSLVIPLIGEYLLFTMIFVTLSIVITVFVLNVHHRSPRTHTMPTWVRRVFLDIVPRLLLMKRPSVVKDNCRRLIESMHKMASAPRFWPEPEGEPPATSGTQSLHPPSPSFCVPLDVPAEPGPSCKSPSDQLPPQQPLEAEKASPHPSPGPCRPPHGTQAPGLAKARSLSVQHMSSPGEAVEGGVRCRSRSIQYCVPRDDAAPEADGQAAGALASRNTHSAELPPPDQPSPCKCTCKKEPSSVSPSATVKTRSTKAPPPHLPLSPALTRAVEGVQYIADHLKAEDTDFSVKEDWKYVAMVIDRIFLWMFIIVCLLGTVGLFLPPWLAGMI
Sequence of Acetylcholine-binding protein (P58154 whole entry): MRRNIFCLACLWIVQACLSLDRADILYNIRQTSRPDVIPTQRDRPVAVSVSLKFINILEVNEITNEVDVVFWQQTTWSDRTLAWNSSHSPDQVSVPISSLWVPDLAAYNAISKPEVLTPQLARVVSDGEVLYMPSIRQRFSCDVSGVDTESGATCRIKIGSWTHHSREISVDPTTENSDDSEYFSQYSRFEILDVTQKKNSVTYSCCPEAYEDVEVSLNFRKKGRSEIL

## CN1[C@@H]2CC[C@H]1C[C@H](n1cc(-c3cc(C(F)(F)F)cc(C(F)(F)F)c3)nn1)C2 [17t]
[1]
  Ki: 600 nM
[2]
  EC50: > 30000 nM
[3]
  Ki: > 30000 nM
[4]
  Ki: 1100 nM and > 5000 nM
[5]
  Ki: > 30000 nM

## C[N+]1(C)[C@@H]2CC[C@H]1C[C@H](n1cc(-c3cc(C(F)(F)F)cc(C(F)(F)F)c3)nn1)C2 [17q]
[1]
  Ki: 130 nM
[2]
  EC50: 900 nM
[3]
  Ki: 8000 nM
[4]
  Ki: 110 nM and 300 nM and 400 nM
[5]
  Ki: 5000 nM
